Where two headings read alike, the source gives them in different places.

Data set [1] can be described thus: tolerability in HT1376 xenograft studies. Type of data set: in vivo. Conditions: HT1376 xenograft mice, doses<75 mg/kg PO QD. Here is the method:
Cell line derived xenograft tumor experiments were performed at WuXi AppTec, Shanghi, China. Patient derived xenograft experiments were performed at Crown BioScience Inc., Taicang Jiangsu Province, China, or Champions Oncology, Rockville, MD, US. All the procedures related to animal handling, care and the treatment in the xenograft studies were performed according to the guidelines approved by the Institutional Animal Care and Use Committee (IACUC) of WuXi AppTec or Crown BioScience Inc. following the guidance of the Association for Assessment and Accreditation of Laboratory Animal Care (AAALAC). The mice were kept in individual ventilation cages at constant temperature and humidity with 3-5 animals in each cage. Mice were checked daily for any effects of tumor growth and/or treatments on normal behavior such as mobility, food and water consumption, body weight gain/loss, eye, and any other abnormal effects. […] Animal body weight was monitored regularly as an indirect measurement of toxicity. Supplemented diet was provided after cell inoculation for all groups to help with body weight maintenance. If an animal lost >15% body weight, their treatments were suspended accordingly then resumed when body weight loss returned to <10%. […]
Response of Compound 1 treatment relative to other EZH2, dual EZH1 and EZH2, or EED inhibitors was analyzed in vitro and in vivo.

Data set [2] deals with H3K27me3 levels in HT1197 cells. Put plainly: H3K27me3 level, 3-day MSD ELISA. The format is cell-based. As to conditions: Homo sapiens, HT1197, H3K27me3, 72 hours. As to the method: (§1) FIG. 3 represents normalized global H3K27me levels in HT1197 (left) and T24 (right) cell lines following 72 hours of treatment across a dose range of Compound 1. Data represented as average of triplicate wells±SD and are representative of quadruplicate independent experiments.
(§2) H3K27me3 and total H3 expression levels in cells and tumor tissues were analyzed by Meso Scale Discovery (MSD) ELISA. For assays with cultured cell lines, trypsinzed cells were counted using a Countess® cell counter (Life Technologies) and plated in 100 μL of cell culture medium onto 96-well tissue culture treated plates containing Compound 1 (9 concentrations in a series of 3-fold dilutions) and incubated at 37° C. in 5% CO2 for 24-96 hours, depending on the assay.
(§3) As with EZH2 inhibitors in other cancer cell line contexts, the cell viability effects in Compound 1 sensitive bladder cancer cell lines are time-dependent.
In general terms: ELISA stands for enzyme-linked immunosorbent assay.

The subject of data set [3] is H3K27me3 levels in T24 cells. Put plainly: H3K27me3 level, 3-day MSD ELISA. Conditions: Homo sapiens, T-24, T24, H3K27me3, 72 hours. Type of data set: cell-based. As to the method:
as §1, §2, §3

Data set [4] deals with panel of 21 bladder cancer cell lines. Put plainly: 18-day viability, summary over the panel. Conditions: 432 h. Type of data set: cell-based. From the text:
Black bar indicates cell line carrying at least one ARID1A stop-gain (denoted by an *) or frameshift (fs) allele as detailed below the chart. Green bar indicates line carrying a single missense mutation, while grey bars indicate those lines with no mutations in the coding region of ARID1A. Data represented as an average of duplicate wells±SD and are representative of duplicate independent experiments.
The cell lines used were obtained from ATCC (Manassas, VA), DSMZ (Braunschweig, Germany), ECACC (Salisbury, UK or through Sigma), or JCRB (Osaka, Japan) and were grown in media recommended by the vendor (or indicated in supplementary methods table 1) and maintained at 37° C. in humidified incubators with 5% CO2. Cell lines were maintained in T75 flasks and subcultured by releasing from plates with TrypLE solution (Thermo Fisher Scientific/Invitrogen #12604021) every 2-4 days, depending on growth kinetics of the cell line, to maintain growth at subconfluent levels.
A panel of 21 bladder cancer cell lines was evaluated for their response to Compound 1. […] No association between Compound 1 sensitivity and baseline levels of EZH1, EZH2, H3K27me3, ARID1A or ARID1B by western blot were observed.

The mark [5] stands for this setting: average of replicates, read-out: EC50 (nM) 3-day MSD Avg.
The mark [6] stands for this setting: replicate 1, read-out: EC50 (nM) 3-day MSD Replicate 1.
Where [7] appears, read: replicate 2, read-out: EC50 (nM) 3-day MSD Replicate 2.

Usually EC50 stands for the concentration at which the effect is half-maximal. A word on the GI50: it is the concentration giving 50% growth inhibition. As to `COC1CN([C@H]2CC[C@H]([C@@]3(C)Oc4c(Cl)cc(C(=O)NCc5c(SC)cc(C)[nH]c5=O)c(C)c4O3)CC2)C1` [Compound 1, (R)-7-chloro-2-((1r,4R)-4-(3-methoxyazetidin-1-yl)cyclohexyl)-2,4-dimethyl-N-((6-methyl-4-(methylthio)-2-oxo-1,2-dihydropyridin-3-yl)methyl)benzo[d][1,3]dioxole-5-carboxamide], in data set [1], the tolerability entry is given as “well tolerated”. For the same molecule, the concentration giving a half-maximal response (EC50) in data set [2] (setting [5]) was 0.109 nM; in data set [2] (setting [6]), 0.077 nM; in data set [2] (setting [7]), 0.141 nM; in data set [3] (setting [5]), 0.401 nM; in data set [3] (setting [6]), 0.323 nM; in data set [3] (setting [7]), 0.373 nM. Also, in data set [3] (replicate 3, read-out: EC50 (nM) 3-day MSD Replicate 3), the EC50 was 0.506 nM. The 50% growth inhibitory concentration (GI50) in data set [4] (sensitive subset (6) of the bladder cancer lines, after 18 days of treatment, read-out: GI50) is 3 to 37 nM; in data set [4] (unresponsive (resistant) lines (15), 18 days, read-out: 18-day GI50), > 5000 nM.

Values taken from patent US20260021082A1, “EZH2 INHIBITION THERAPIES FOR THE TREATMENT OF AT-RICH INTERACTIVE DOMAIN-CONTAINING PROTEIN 1A (ARID1A) MUTATED CANCERS” (Constellation Pharmaceuticals, Inc., priority 2022, published 2026).
